Assay results taken from article PMC10535741, “Styrylpyridinium Derivatives for Fluorescent Cell Imaging” (Pharmaceuticals, 2023).
“Also recorded” adds a separate entry of the source.

Tests used:
BHK-21 cells = assay: Cell passaging assay, flow cytometry on day 6; type: cell-based, Syrian hamster; details: BHK-21, passaged twice, six days of culture; 25 μM 6e or 1 μM Deep Red
Method: In order to assess the stability of staining after prolonged cell culture, the stained BHK-21 cells (Day 1) were passaged twice (Days 2 and 4) and cultured for six days in total (Day 6, Figure 4). On day 6, the cells were collected and analysed by flow cytometry. […] It can be concluded that, in contrast to the Deep Red cell tracker, SP compound 6e effectively stains cells and can be used for up to 6 days of cell culture.
For the cell passaging, on day 0, BHK-21 cells were plated on a 6-well plate with a seeding density of 1.5 × 10^5 cells per well. On day 1, the cells were stained with 25 μM compound 6e or 1 μM CellTracker™ Deep Red dye as described above. […] On day 6, cells were collected for flow cytometry analysis. The cells were kept at 4 °C and analysed as described above.

BMDMs = assay: Confocal microscopy, localisation of the staining; type: cell-based, mouse; details: 5 μM, confocal microscopy with WGA Alexa Fluor 488 and DAPI
From the text: The stained BMDMs were studied using confocal microscopy to verify the membrane, cytoplasmic, or nuclear localisation of the staining (Figure 6). Wheat germ agglutinin (WGA) Alexa Fluor 488 (Invitrogen, W11261) was chosen for selective plasma membrane labelling and DAPI (Invitrogen, D1306) was selected for nucleus labelling. […] Furthermore, the SP compound 6e was compared with commercially available CM-DiI Dye (Invitrogen, ex/em: 553/570, Figure 6b).
For confocal microscopy, BMDMs were stained with 4 μM CellTracker™ CM-DiI dye (Cat. No. C7001; Invitrogen) or 5 μM compound 6e. Briefly, the cells were washed and then a dye solution in PBS was added to them. […] Then, the cells were stained with WGA Alexa Fluor 488 (Cat. No. W11261; Invitrogen) following the manufacturer’s instructions. Briefly, the cells were incubated with 1 μg/mL WGA solution in PBS at 37 °C. […] The fluorescence was detected as follows: a DPSS (561 nm) laser was used for excitation of compound 6e and CM-Dil, an argon (488 nm) laser was used for WGA, and a diode (405 nm) laser was used for DAPI. For fluorescence detection, HyD was used for compound 6e and CM-Dil (578 nm–636 nm) and PMT detectors were used for WGA (493 nm–739 nm) and DAPI (417 nm–498 nm), pinhole at 95 µm. The images were analysed using Leica Application Suite X 3.1.5. software (Leica Microsystems, Germany).

## CCCCCCCCCCCCCCCC[n+]1ccc(C=CC=Cc2cc3c4c(c2)CCCN4CCC3)cc1.[Br-] [Compound 6e, 1-hexadecyl-4-(4-(2,3,6,7-tetrahydro-1H,5H-pyrido[3,2,1-ij]quinolin-9-yl)buta-1,3-dien-1-yl)pyridin-1-ium bromide]
BHK-21 cells
  positive fluorescent cells on day 6: 15.0 ± 0.7%
BMDMs
  localisation of the staining in cells: strong fluorescent signal localised in the cell cytoplasm, whereas the cell nuclei were not stained; also recorded: localised in the cell cytoplasm and does not stain the cell nucleus; also recorded: localises within the cell cytoplasm and does not stain the cell nucleus
